Results on 17 compounds are retold here after patent US20210115040A1, “OGA INHIBITOR COMPOUNDS” (Janssen Pharmaceutica NV, priority 2018, published 2021).

For one assay, the target named is T1, OGA (Homo sapiens, UniProt O60502).
T1 construct: HEK293 cells inducible for P301L mutant human Tau (isoform 2N4R) were established at Janssen; endogenous in cells; host or cells: HEK293 cells inducible for P301L mutant human Tau (2N4R)
T1 sequence (O60502 1-916): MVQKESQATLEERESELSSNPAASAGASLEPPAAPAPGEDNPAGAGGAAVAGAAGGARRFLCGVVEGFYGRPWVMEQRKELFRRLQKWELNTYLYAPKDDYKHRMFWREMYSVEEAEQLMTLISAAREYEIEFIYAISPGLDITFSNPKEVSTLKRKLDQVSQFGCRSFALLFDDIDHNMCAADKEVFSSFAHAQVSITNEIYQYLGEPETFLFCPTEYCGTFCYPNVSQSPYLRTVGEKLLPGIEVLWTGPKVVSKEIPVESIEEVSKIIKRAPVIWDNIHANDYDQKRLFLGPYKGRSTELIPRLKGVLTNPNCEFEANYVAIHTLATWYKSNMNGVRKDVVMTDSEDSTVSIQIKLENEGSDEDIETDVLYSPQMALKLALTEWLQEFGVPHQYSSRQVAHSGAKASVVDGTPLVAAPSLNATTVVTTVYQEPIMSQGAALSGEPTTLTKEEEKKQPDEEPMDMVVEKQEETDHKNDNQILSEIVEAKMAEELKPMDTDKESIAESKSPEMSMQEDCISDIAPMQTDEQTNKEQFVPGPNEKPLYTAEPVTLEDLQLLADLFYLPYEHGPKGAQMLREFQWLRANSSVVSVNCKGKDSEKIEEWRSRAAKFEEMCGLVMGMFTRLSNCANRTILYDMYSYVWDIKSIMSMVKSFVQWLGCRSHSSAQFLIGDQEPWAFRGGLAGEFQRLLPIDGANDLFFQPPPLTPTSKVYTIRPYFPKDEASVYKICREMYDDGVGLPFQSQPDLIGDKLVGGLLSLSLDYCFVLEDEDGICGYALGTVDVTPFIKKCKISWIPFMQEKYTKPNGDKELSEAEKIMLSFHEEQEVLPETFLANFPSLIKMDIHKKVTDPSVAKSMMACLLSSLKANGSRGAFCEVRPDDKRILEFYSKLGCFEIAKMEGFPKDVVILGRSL
As to the kind of experiment: OGA cellular assay (ICC detection of O-GlcNAcylated proteins in HEK293 cells inducible for P301L mutant human Tau). The assay is classed as cell-based. The settings on record: for Emax: HEK293, HEK293 cells inducible for P301L mutant human Tau; for EC50: 6 hours incubation, read-out: Cellular hOGA, pEC50 (converted). On the procedure:
HEK293 cells inducible for P301L mutant human Tau (isoform 2N4R) were established at Janssen. Thiamet-G was used for both plate validation (high control) and as reference compound (reference EC50 assay validation). OGA inhibition is evaluated through the immunocytochemical (ICC) detection of O-GlcNAcylated proteins by the use of a monoclonal antibody (CTD110.6; Cell Signaling, #9875) detecting 0-GlcNAcylated residues as previously described (Dorfmueller et al. 2010 Chemistry & biology, 17:1250). Inhibition of OGA will result in an increase of O-GlcNAcylated protein levels resulting in an increased signal in the experiment. Cell nuclei are stained with Hoechst to give a cell culture quality control and a rough estimate of immediate compounds toxicity, if any. ICC pictures are imaged with a Perkin Elmer Opera Phenix plate microscope and quantified with the provided software Perkin Elmer Harmony 4.1.
Cells were propagated in DMEM high Glucose (Sigma, #D5796) following standard procedures. 2 days before the cell assay cells are split, counted and seeded in Poly-D-Lysine (PDL) coated 96-wells (Greiner, #655946) plate at a cell density of 12,000 cells per cm^2 (4,000 cells per well) in 100 μl of Assay Medium (Low Glucose medium is used to reduce basal levels of GlcNAcylation) (Park et al. 2014 The Journal of biological chemistry 289:13519). At the day of compound test medium from assay plates was removed and replenished with 90 μl of fresh Assay Medium. 10 μl of compounds at a 10fold final concentration were added to the wells. Plates were centrifuged shortly before incubation in the cell incubator for 6 hours. DMSO concentration was set to 0.2%. Medium is discarded by applying vacuum. For staining of cells medium was removed and cells washed once with 100 μl D-PBS (Sigma, #D8537). From next step onwards unless other stated assay volume was always 50 μl and incubation was performed without agitation and at room temperature. Cells were fixed in 50 μl of a 4% paraformaldehyde (PFA, Alpha aesar, #043368) PBS solution for 15 minutes at room temperature. […] Before analysis samples were washed 2 times manually for 5 minutes in ICC base buffer.
Imaging is performed using Perkin Elmer Phenix Opera using a water 20× objective and recording 9 fields per well. Intensity readout at 488 nm is used as a measure of O-GlcNAcylation level of total proteins in wells. To assess potential toxicity of compounds nuclei were counted using the Hoechst staining. IC50-values are calculated using parametric non-linear regression model fitting. As a maximum inhibition Thiamet G at a 200 uM concentration is present on each plate. In addition, a concentration response of Thiamet G is calculated on each plate.

Assay [1] concerns the target T2, recombinant human Meningioma Expressed Antigen 5 (MGEA5), also referred to as O-GlcNAcase (OGA) (Homo sapiens, UniProt O60502).
T2 construct: Full length OGA enzyme was purchased at OriGene (cat #TP322411); purchased OriGene TP322411
T2 sequence (O60502 1-916): T1 sequence (O60502 1-916)
As to the kind of experiment: OGA biochemical assay (inhibition of FM-GlcNAc hydrolysis, fluorescence). The settings on record: FM-GlcNAc substrate; for IC50: 6 h at room temperature, read-out: Enzymatic hOGA, pIC50 (converted); for Emax: maximal effect, read-out: Enzymatic Emax (%). The source says:
The assay is based on the inhibition of the hydrolysis of fluorescein mono-β-D-N-Acetyl-Glucosamine (FM-GlcNAc) (Mariappa et al. 2015, Biochem J 470:255) by the recombinant human Meningioma Expressed Antigen 5 (MGEA5), also referred to as O-GlcNAcase (OGA). The hydrolysis FM-GlcNAc (Marker Gene technologies, cat #M1485) results in the formation of β-D-N-glucosamineacetate and fluorescein. The fluorescence of the latter can be measured at excitation wavelength 485 nm and emission wavelength 538 nm. An increase in enzyme activity results in an increase in fluorescence signal. Full length OGA enzyme was purchased at OriGene (cat #TP322411). The enzyme was stored in 25 mM Tris.HCl, pH 7.3, 100 mM glycine, 10% glycerol at −20° C. Thiamet G and GlcNAcStatin were tested as reference compounds (Yuzwa et al. 2008 Nature Chemical Biology 4:483; Yuzwa et al. 2012 Nature Chemical Biology 8:393). The assay was performed in 200 mM Citrate/phosphate buffer supplemented with 0.005% Tween-20. 35.6 g Na2HPO4 2H2O (Sigma, #C0759) were dissolved in 1 L water to obtain a 200 mM solution. 19.2 g citric acid (Merck, #1.06580) was dissolved in 1 L water to obtain a 100 mM solution. pH of the sodiumphosphate solution was adjusted with the citric acid solution to 7.2. The buffer to stop the reaction consists of a 500 mM Carbonate buffer, pH 11.0. 734 mg FM-GlcNAc were dissolved in 5.48 mL DMSO to obtain a 250 mM solution and was stored at −20° C. OGA was used at a 2 nM concentration and FM-GlcNAc at a 100 uM final concentration. Dilutions were prepared in assay buffer.
50 nl of a compound dissolved in DMSO was dispensed on Black Proxiplate™ 384 Plus Assay plates (Perkin Elmer, #6008269) and 3 μl fl-OGA enzyme mix added subsequently. Plates were pre-incubated for 60 min at room temperature and then 2 μl FM-GlcNAc substrate mix added. […] Plates were briefly centrifuged for 1 min at 1000 rpm and incubate at room temperature for 6 h. To stop the reaction 5 μl STOP buffer were added and plates centrifuge again 1 min at 1000 rpm. Fluorescence was quantified in the Thermo Scientific Fluoroskan Ascent or the PerkinElmer EnVision with excitation wavelength 485 nm and emission wavelength 538 nm.
For analysis a best-fit curve is fitted by a minimum sum of squares method. From this an IC50 value and Hill coefficient was obtained. High control (no inhibitor) and low control (saturating concentrations of standard inhibitor) were used to define the minimum and maximum values.

Setting [2] is: HEK293 cells inducible for P301L mutant human Tau.

A value given as a limit tells only on which side of the number the result lay.

As a reminder, the Emax is the size of the effect at its maximum, as opposed to the concentration needed.

Take `Cc1cc(C[C@H]2CCCN(C(C)c3ccc4nc(C)[nH]c4n3)C2)cc(C)n1` (mixture of isomers) [Compound 8]: the Emax at OGA (maximum = Thiamet G 200 uM) came to 23%. Further, the EC50 at OGA (setting [2]) was above 1000 nM. Moreover, in assay [1], the IC50 is 100 nM and the Emax amounted to 99%.

For `Cc1cc(C[C@@H]2CCN([C@H](C)c3cc4nc(C)sc4cc3F)C2)cc(C)n1` [Compound 59], at OGA (maximum = Thiamet G 200 uM), the Emax was 11%. Moreover, the EC50 on OGA (setting [2]) was above 1000 nM. In addition, in assay [1], the IC50 was 200 nM and the Emax was found to be 98%.

With `Cc1cc(C[C@H]2CCCN(C(C)c3ccc4oc(C)nc4n3)C2)cc(C)n1` (mixture of isomers) [Compound 22], the Emax at OGA (maximum = Thiamet G 200 uM) turned out to be 91%; in assay [1], 101%. Further, the EC50 on OGA (setting [2]) was 12.6 nM. For the same compound, the IC50 in assay [1] is 3.16 nM.

In the case of `Cc1cc(C[C@@H]2CCN([C@@H](C)c3cc4nc(C)sc4cc3F)C2)cc(C)n1` [Compound 60], the Emax on OGA (maximum = Thiamet G 200 uM) was determined as 66%; in assay [1], 99%. Also, on OGA (setting [2]), the EC50 was 63.1 nM. In addition, the IC50 in assay [1] is 2 nM.

Take `Cc1cc([C@H]2CCCN([C@@H](C)c3nc4nc(C)sc4cc3F)C2)cc(C)n1` (single isomer, unassigned) [Compound 87]: the Emax at OGA (maximum = Thiamet G 200 uM) was 79%; in assay [1], 99%. Also, at OGA (setting [2]), the EC50 was 3.16 nM. For the same compound, the IC50 in assay [1] is 2.51 nM.

Regarding `Cc1cc(C[C@@H]2CCN(C(C)c3ccc4sc(C)nc4n3)C2)cc(C)n1` (mixture of isomers) [Compound 43], at OGA (maximum = Thiamet G 200 uM), the Emax was determined as 60%. For the same compound, at OGA (setting [2]), the EC50 was 631 nM. For the same compound, in assay [1], the IC50 was 53.7 nM and the Emax came to 103%.

As for `Cc1cc(C[C@H]2CCCN(C(C)c3cnc4oc(C)nc4c3)C2)cc(C)n1` (mixture of isomers) [Compound 30], the results for the Emax (at OGA (maximum = Thiamet G 200 uM); in assay [1]) were 79% and 102%, respectively. Besides, on OGA (setting [2]), the EC50 was 200 nM. Besides, the IC50 in assay [1] was 12.6 nM.

`Cc1cc(OC[C@H]2CCCN([C@@H](C)c3ccc4sc(C)nc4n3)C2)nc(C)n1` [Compound 49a]: the Emax at OGA (maximum = Thiamet G 200 uM) was -2%. The EC50 on OGA (setting [2]) was above 1000 nM. In addition, in assay [1], the IC50 was 2000 nM and the Emax came to 84%.

With `Cc1cc(C[C@H]2CCCN(C(C)c3ccc4nc(C)sc4c3)C2)cc(C)n1` (mixture of isomers) [Compound 51], the EC50 on OGA (setting [2]) was above 1000 nM. In assay [1], the IC50 is 501 nM and the Emax was 99%.

`Cc1cc(C2CCCN(C(C)c3cc4nc(C)sc4cc3F)C2)cc(C)n1` (stereo not shown) [Compound 89]: the figures for the Emax (at OGA (maximum = Thiamet G 200 uM); in assay [1]) were 64% and 102%, respectively. Also, the EC50 on OGA (setting [2]) was 15.8 nM. The IC50 in assay [1] is 6.31 nM.

In the case of `Cc1cc(C[C@H]2CCCN(C(C)c3cnc4c(c3)nc(C)n4C)C2)cc(C)n1` (mixture of isomers) [Compound 11], the Emax at OGA (maximum = Thiamet G 200 uM) amounted to 64%. Besides, the EC50 on OGA (setting [2]) is 631 nM. For the same compound, in assay [1], the IC50 is 31.6 nM and the Emax was 100%.

As to `Cc1cc(C[C@H]2CCCN(Cc3ccc4[nH]c(C)nc4n3)C2)cc(C)n1` [Compound 9], at OGA (maximum = Thiamet G 200 uM), the Emax came to 59%. Moreover, the EC50 on OGA (setting [2]) is 631 nM. Also, in assay [1], the IC50 was 200 nM and the Emax came out at 96%.

For `Cc1cc(OC[C@H]2CCCN([C@H](C)c3ccc4sc(C)nc4n3)C2)nc(C)n1` [Compound 49b], the Emax on OGA (maximum = Thiamet G 200 uM) amounted to 70%. For the same compound, the EC50 on OGA (setting [2]) is 31.6 nM. Besides, in assay [1], the IC50 was 6.31 nM and the Emax was found to be 99%.

As for `Cc1cc(C[C@H]2CCN(C(C)c3cnc4[nH]c(C)nc4c3)C2)cc(C(F)(F)F)n1` (stereo partly shown) [Compound 104], the values for the Emax (at OGA (maximum = Thiamet G 200 uM); in assay [1]) were 20% and 94%, respectively. Further, the EC50 on OGA (setting [2]) is above 1000 nM. Moreover, the IC50 in assay [1] was 501 nM.

As to `Cc1cc(C2CCCN(C(C)c3ccc4sc(C)nc4n3)C2)c(F)c(C)n1` (single isomer, unassigned) [Compound 77], the EC50 on OGA (setting [2]) is above 1000 nM. Besides, the “Cellular Emax (%)” value at OGA (HEK293 cells inducible for P301L mutant human Tau, maximum = Thiamet G 200 uM) was −10%. In addition, in assay [1], the IC50 is 2510 nM and the Emax is 75%.

Consider `Cc1cc(OC[C@H]2CCCN(C(C)c3ccc4sc(C)nc4n3)C2)cc(C)n1` (mixture of isomers) [Compound 46ab], for which the Emax at OGA (maximum = Thiamet G 200 uM) was 85%. For the same compound, the EC50 on OGA (setting [2]) is 15.8 nM. Further, in assay [1], the IC50 was 5.01 nM and the Emax turned out to be 101%.

Take `Cc1cc([C@H]2CCCN(C(C)c3nc4nc(C)sc4cc3F)C2)cc(C)n1` (single isomer, unassigned) [Compound 85]: on OGA (maximum = Thiamet G 200 uM), the Emax was 75%. Moreover, the EC50 at OGA (setting [2]) is 10 nM. Moreover, in assay [1], the IC50 was 3.98 nM and the Emax turned out to be 100%.
